In US20230159537A1, “COMPOUND, PREPARATION METHOD THEREOF, AND USE THEREOF IN PREPARATION OF ANTI-CANCER DRUG” (TIANJIN JIKUN MEDICAL TECHNOLOGY CO., LTD., priority 2020, published 2023):

Key:
FGFR3 = molecular target: T1, FGFR3 (Homo sapiens, UniProt P22607); test: HTRF enzyme activity test, FGFR3; assay type: biochemical
T1 construct: made in house; host or cells: Escherichia coli
Method: In the present disclosure, the homogeneous time-resolved fluorescence (HTRF) technology was used to evaluate an inhibitory effect of a compound on the four subtypes FGFR1, FGFR2, FGFR3, and FGFR4. FGFR1, FGFR2, FGFR3, and FGFR4 prokaryotic expression vectors were first constructed; and when the prokaryotic expression vectors were identified as correct, FGFR proteins were expressed and purified on a large scale in an Escherichia coli (E. coli) system, and protein concentrations were determined. Resulting proteins were stored in aliquots. Before an enzyme activity test was started, cisbio HTRF KinEA (62TK0PEB) was used to pre-dilute each component required in an enzyme activity system with an enzyme activity buffer to a required working concentration. A 384-well plate (66PL384025) was prepared, 5 μL of a protein solution, 1 μL of a compound, and 2 μL of a substrate were added to each well, and 2 μL of ATP was finally added to initiate a reaction. Three parallel experiments were set for each concentration. […] The 384-well plate was sealed and incubated at room temperature for about 1 h. […] Finally, the TECAN infinite M1000PRO multi-function microplate reader was used to detect a fluorescence signal, an inhibition rate was calculated, and an IC50 value was fitted with GraphPad Prism 7.0.

Huh-7 = test: MTT cell proliferation assay, Huh-7; assay type: cell-based; conditions: tumor cells with normal FGFR expression (Huh-7, A549 of Table 2)
A549 = test: cells; conditions: Homo sapiens, A549, 96 h, read-out: Anti-proliferation IC50 A549

T1 sequence (P22607 23-806): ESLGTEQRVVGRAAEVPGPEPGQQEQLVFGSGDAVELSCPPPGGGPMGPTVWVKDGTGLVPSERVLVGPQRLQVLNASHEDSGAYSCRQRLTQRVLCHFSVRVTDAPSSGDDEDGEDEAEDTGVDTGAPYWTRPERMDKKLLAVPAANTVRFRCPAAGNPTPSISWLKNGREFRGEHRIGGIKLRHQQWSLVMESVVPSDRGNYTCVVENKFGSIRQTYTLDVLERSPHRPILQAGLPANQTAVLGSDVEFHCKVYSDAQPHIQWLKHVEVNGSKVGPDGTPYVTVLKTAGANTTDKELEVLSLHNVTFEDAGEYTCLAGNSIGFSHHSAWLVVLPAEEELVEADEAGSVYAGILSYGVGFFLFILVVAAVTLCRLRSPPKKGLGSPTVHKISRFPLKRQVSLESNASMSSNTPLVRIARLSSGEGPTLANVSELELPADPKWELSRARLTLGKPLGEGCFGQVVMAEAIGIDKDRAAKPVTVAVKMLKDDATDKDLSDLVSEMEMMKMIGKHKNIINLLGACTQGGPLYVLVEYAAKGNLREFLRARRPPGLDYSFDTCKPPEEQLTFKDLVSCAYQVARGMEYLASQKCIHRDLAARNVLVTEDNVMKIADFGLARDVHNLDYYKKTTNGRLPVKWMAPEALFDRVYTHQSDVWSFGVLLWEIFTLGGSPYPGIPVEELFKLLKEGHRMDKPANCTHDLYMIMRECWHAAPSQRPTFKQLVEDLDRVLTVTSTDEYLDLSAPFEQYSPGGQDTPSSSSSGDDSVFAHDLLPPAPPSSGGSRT

SMILES	IC50 (FGFR3)	inhibitory effect on tumor cells with normal FGFR expression (in words) (Huh-7)	IC50 (A549)
C=CC(=O)N1CCN(CCCCCn2nc(-c3cccc(OCc4ccccc4)c3)c3c(N)ncnc32)CC1 [Compound 26]	> 5000 nM	–	–
COc1cc(OC)cc(-c2nn(CCCCCN3CCN(C(=O)/C=C/C(F)(F)F)CC3)c3ncnc(N)c23)c1 [Compound 36]	–	no obvious inhibitory effect	> 10 µM
